According to ChEMBL document CHEMBL5465560, “Selectivity Literature for EUbOPEN Chemogenomic Library” (2024):

How the values were obtained:
[1] = molecular target: T1, Testis-specific serine/threonine-protein kinase 3 (Homo sapiens) (UniProt Q96PN8); test: Selectivity interaction (KinomeScan (DiscoverX)) EUB0000229b TSSK3; conditions: at 10 µM
T1 sequence (whole entry): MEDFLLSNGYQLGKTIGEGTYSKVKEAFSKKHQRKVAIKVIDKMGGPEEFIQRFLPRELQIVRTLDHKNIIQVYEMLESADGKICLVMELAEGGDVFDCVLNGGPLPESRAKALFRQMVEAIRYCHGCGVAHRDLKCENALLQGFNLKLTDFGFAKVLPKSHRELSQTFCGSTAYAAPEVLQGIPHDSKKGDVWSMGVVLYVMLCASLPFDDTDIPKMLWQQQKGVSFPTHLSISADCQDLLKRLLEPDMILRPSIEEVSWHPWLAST

[2] = molecular target: T2, Inhibitor of nuclear factor kappa-B kinase subunit epsilon (Homo sapiens) (UniProt Q14164); test: Selectivity interaction (Kinase panel (KiNativ target engagement assay in Jurkat cells)) EUB0001635a IKBKE; type: cell-based; conditions: at 1 µM
T2 sequence (whole entry): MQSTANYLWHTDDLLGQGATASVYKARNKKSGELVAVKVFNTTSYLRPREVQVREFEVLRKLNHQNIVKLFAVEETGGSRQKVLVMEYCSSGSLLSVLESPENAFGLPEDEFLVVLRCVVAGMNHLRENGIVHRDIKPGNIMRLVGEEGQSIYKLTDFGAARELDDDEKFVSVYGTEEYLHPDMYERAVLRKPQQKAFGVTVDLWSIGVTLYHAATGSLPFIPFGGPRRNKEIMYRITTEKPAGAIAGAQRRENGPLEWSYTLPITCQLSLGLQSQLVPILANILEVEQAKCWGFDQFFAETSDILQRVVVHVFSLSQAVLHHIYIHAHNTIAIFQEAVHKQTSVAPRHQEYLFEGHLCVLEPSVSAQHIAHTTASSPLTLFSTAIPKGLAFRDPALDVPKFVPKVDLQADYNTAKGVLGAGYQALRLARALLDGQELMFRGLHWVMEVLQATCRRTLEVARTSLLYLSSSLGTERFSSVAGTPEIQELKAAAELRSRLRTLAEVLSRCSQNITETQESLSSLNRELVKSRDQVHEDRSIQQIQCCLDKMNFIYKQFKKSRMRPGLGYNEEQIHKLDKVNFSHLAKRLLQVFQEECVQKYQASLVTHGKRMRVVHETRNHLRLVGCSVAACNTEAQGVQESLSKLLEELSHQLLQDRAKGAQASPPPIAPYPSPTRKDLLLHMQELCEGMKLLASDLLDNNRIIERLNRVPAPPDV

[3] = molecular target: T3, Calcium/calmodulin-dependent protein kinase type IV (Homo sapiens) (UniProt Q16566); test: Selectivity interaction (Kinase panel (DSF assay)) EUB0001559a CAMK4
T3 sequence (whole entry): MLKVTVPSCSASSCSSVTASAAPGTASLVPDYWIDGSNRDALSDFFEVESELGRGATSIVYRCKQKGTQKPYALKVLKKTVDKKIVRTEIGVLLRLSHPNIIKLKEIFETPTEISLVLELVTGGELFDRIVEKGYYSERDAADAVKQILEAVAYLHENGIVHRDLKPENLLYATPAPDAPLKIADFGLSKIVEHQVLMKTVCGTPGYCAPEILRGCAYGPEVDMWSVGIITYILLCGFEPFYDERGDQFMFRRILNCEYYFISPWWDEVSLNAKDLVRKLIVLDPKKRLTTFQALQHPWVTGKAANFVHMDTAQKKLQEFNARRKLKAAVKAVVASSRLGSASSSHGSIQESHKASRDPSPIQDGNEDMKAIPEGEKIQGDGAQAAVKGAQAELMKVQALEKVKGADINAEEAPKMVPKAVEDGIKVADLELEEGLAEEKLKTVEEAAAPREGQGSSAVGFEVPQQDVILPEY

[4] = molecular target: Platelet-derived growth factor receptor beta (Homo sapiens, UniProt P09619); test: Selectivity interaction (Kinase panel (Invitrogen)) EUB0000639a PDGFRB; conditions: at 200 nM
Sequence of Platelet-derived growth factor receptor beta (P09619 whole entry): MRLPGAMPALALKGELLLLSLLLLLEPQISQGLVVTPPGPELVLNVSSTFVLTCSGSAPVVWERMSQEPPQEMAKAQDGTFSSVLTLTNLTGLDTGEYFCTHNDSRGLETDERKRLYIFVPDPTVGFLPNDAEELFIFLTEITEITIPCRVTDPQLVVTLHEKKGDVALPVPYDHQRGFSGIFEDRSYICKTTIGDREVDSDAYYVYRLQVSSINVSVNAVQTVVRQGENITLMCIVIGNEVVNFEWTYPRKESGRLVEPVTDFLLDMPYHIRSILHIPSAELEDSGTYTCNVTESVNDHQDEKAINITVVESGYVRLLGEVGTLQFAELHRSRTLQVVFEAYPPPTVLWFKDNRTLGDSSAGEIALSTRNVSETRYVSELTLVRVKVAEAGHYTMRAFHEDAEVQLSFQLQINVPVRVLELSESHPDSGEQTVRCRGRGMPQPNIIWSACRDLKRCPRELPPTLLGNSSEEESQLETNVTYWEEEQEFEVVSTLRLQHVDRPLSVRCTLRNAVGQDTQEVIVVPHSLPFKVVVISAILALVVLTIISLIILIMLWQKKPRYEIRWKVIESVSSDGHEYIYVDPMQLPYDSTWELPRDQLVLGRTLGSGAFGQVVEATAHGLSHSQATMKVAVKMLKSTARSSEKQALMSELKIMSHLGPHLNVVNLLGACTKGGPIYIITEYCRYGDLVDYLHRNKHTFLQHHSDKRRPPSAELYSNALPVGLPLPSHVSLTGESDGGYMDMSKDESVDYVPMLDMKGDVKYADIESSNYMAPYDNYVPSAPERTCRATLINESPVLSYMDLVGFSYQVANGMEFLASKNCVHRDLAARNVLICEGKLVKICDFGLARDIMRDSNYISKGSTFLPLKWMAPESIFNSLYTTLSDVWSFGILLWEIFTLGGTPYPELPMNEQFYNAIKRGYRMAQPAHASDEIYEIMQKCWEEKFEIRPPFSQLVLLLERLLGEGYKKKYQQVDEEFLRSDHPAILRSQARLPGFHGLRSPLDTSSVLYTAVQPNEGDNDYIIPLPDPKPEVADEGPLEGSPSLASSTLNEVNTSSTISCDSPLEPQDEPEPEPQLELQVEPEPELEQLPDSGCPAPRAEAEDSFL

[5] = molecular target: T4, Tyrosine-protein kinase Tec (Homo sapiens) (UniProt P42680); test: Selectivity interaction (KinomeScan (DiscoverX)) EUB0000092b TEC; conditions: at 10 µM
T4 sequence (whole entry): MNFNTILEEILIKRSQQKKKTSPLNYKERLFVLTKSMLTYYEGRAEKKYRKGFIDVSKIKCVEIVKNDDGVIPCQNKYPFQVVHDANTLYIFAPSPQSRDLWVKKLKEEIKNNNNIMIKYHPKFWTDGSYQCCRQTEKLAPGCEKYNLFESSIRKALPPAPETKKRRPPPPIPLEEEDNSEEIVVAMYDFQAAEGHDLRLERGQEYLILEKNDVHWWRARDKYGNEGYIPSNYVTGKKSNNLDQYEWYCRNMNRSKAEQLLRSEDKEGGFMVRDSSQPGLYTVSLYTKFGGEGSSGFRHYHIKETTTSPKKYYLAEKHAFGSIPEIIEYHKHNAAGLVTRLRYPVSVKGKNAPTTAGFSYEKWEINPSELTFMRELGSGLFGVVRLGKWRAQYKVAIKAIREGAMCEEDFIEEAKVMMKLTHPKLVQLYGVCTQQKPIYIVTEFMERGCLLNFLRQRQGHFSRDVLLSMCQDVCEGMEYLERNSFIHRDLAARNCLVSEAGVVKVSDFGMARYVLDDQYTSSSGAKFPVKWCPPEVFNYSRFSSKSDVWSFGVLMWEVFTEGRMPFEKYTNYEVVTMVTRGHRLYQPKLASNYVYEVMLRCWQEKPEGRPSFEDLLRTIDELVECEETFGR

[6] = molecular target: T5, Interleukin-1 receptor-associated kinase 4 (Homo sapiens) (UniProt Q9NWZ3); test: Selectivity interaction (ActivX KiNativ screen (ex vivo kinase selectivity in human PBMCs)) EUB0001619a IRAK4; type: cell-based; conditions: PBMC, at 1 µM
T5 sequence (whole entry): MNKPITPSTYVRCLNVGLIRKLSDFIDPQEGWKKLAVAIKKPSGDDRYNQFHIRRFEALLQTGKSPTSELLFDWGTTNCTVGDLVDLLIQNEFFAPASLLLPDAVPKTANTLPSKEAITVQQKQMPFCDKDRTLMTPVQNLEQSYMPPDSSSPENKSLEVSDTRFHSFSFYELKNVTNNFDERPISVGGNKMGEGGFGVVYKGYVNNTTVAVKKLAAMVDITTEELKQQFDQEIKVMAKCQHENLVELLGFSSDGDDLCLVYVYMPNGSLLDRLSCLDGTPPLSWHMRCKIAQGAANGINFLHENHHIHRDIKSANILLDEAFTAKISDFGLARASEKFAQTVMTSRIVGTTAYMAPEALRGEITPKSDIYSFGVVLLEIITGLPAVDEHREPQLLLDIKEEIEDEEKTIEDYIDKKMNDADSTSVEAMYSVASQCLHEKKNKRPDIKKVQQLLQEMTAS

[7] = molecular target: T3, Calcium/calmodulin-dependent protein kinase type IV (Homo sapiens); test: Selectivity interaction (ProQinase) EUB0000171b CAMK4

Compound COc1cc(N(C)c2ccnc3ccc(C(F)(F)F)cc23)cc(OC)c1OC has a % binding [1] of 81%.

Compound C=CC(=O)Nc1ccc(C(=O)Nc2[nH]nc3c2CN(C(=O)N[C@H](CN(C)C)c2ccccc2)C3(C)C)cc1 has a % of engagement ([2]; Selectivity number of off-targets 0.0, Selectivity number of targets 233.0, Source Knowledge https://www.sciencedirect.com/science/article/pii/S2451945619300674?via%3Dihub) of 28.4% and a % of engagement [2] of 32.7%.

Work on CN(C(=O)c1cnn2cccnc12)c1cc2c(cc1N1CCOCC1)C(=O)N(C[C@@H](F)C(C)(C)O)C2 yielded a dTM [3] of -0.4 K.

For CC[C@@H]1[C@H](F)C(=O)N[C@@H]1COc1nccc2cc(C(N)=O)c(OC)cc12 [ZIMLOVISERTIB], the % of inhibition [4] was -2.22%.

Compound CCC(=O)N1CCN(c2ccc(-n3c(=O)ccc4cnc5ccc(-c6cnc7ccccc7c6)cc5c43)cc2C(F)(F)F)CC1 has a % of control [5] of 99%.

For N#Cc1cccc(-c2c[nH]c3ncnc(N4CCOCC4)c23)c1, the % of inhibition [6] was 11%.

For C=CC(=O)Nc1cccc(C(=O)Nc2ccc(Nc3cc(-c4[nH]c(SC)nc4C)ccn3)cc2)c1, the % of control ([7]; at 1 µM) was 110% and the % of control ([7]; at 5 µM) was 91%.
